Our source for the TGI values is PubChem BioAssay (NCI).

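Where inhibition never reached the appropriate level, the endpoint shown equals the highest concentration tested. Otherwise, values were interpolated linearly from a five-concentration, 48-hour dose response in 96-well plates. TGI marks complete inhibition of growth.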

Assay in all cases: NCI tumour cell line growth inhibition, 48 h
Assay [1] deals with DLD-1 colon.
The test system of assay [2] is DMS 114 small cell lung.
The test system of assay [3] is SN12K1 renal.
In assay [4] the test system is SNB-78 CNS.
Assay [5] has as its system DMS 273 small cell lung.
For assay [6], the system named is P388 leukemia.
Assay [7] relates to HOP-18 NSCLC.
Assay [8] deals with P388/ADR leukemia.
The subject of assay [9] is LXFL 529 NSCLC.
Assay [10] relates to RXF-631 renal.

As for `C=C1C(=O)O[C@@H]2[C@H](O)[C@@H](C)[C@@H]3C=CC(=O)[C@@]3(C)[C@@H](OC(=O)/C(C)=C/C)[C@H]12`, the TGI in assay [1] was 1.31 µM; in [2] it was 3.63 µM; in assay [3], 0.688 µM; in assay [4] it was 8.03 µM; in [5], 3.56 µM; in [6], 2.74 µM. The TGI was determined as 4.75 µM in [7] and 1.08 µM in [8].

As for `COCN1COCN=C1NC#N`, the TGI in assay [1], in assay [2], in assay [9], in [10], in assay [4] and in [5] was above 100 µM each time. In assay [7], this molecule came in with a TGI above 100 µM.

As for `C=C(NC(=O)C(=C)NC(=O)c1csc(C2=NC3c4csc(n4)C4NC(=O)c5csc(n5)C(C(C)(O)C(C)O)NC(=O)C5CSC(=N5)/C(=C/C)NC(=O)C(C(C)O)NC(=O)c5csc(n5)C3(CC2)NC(=O)C(C)NC(=O)C(=C)NC(=O)C(C)NC(=O)C(C(C)CC)NC2C=Cc3c(C(C)O)cc(nc3C2O)C(=O)OC4C)n1)C(N)=O` (stereo unspecified), the TGI is 4.44 µM in assay [1]; 7.69 µM in assay [2]; 1.65 µM in [9]; 2.57 µM in [3]; 18 µM in assay [10]; above 100 µM in [4]. For the same molecule, the TGI in [5] amounted to 2.8 µM; in assay [6], 0.19 µM; in assay [7] it was 16.8 µM.

As for `COc1ccc([C@@H]2CC(=O)N2)cc1`, the TGI in assay [1], in assay [2], in [9], in [4], in assay [5] and in assay [7] was above 100 µM each time.

`O=C(c1ccccc1)C1S(=O)(=O)OCCOS1(=O)=O`: the TGI in [1], in assay [2], in [9], in assay [10], in assay [4] and in assay [5] was above 100 µM in each case.

For the molecule `O=C1CC(c2ccccc2)=Nc2ccccc2N1`, the TGI in [1], in assay [9], in assay [4], in [5] and in [7] was above 100 µM each time.

In the case of `O=C(c1ccc(Cl)cc1)N(C(=S)N1CCN(c2ccccn2)CC1)C1CCCCC1`, the TGI in assay [1], in assay [2], in [9], in assay [4], in [5] and in assay [7] was above 100 µM in each case.

On to `CCOC(=O)/C(=C/c1ccc(C(=O)OC)cc1)N(CC)CC`, for which the TGI is above 100 µM in assay [2], above 100 µM in [9] and 91.7 µM in [4].

For the molecule `O=C(CSc1nc(-c2ccccc2)c(-c2ccccc2)[nH]1)N/N=C/c1ccc(O)cc1`, the TGI is above 100 µM in assay [1]; 57.5 µM in assay [2]; 99.5 µM in assay [9]; above 100 µM in assay [4]; 48.3 µM in assay [5]; above 100 µM in assay [7].

Take `N#C/C(=C/c1ccc2c(c1)OCO2)C(=O)c1ccccc1`: the TGI in assay [1], in [9], in assay [4] and in [7] was above 100 µM each time.

With `CCOC(=O)C(Cc1c[nH]c2cc([N+](=O)[O-])ccc12)NS(=O)(=O)c1ccc2ccccc2c1` (stereo unspecified), the TGI in assay [1] was 65.7 µM; in assay [2], 38.3 µM; in assay [9] it was 32.5 µM; in [4], 47.7 µM; in assay [5] it was 32.1 µM; in [7], above 100 µM.
